Converted amounts (≈) assume the structure as drawn.
How the values were obtained:
Aphidius rhopalosiphi = details: not reported; mortality
Anas platyrhynchos = details: acute; oral; unspecified; mortality
Mus musculus = details: acute; oral; mortality
Colinus virginianus = details: for LD50: acute, oral, mortality
Canidae = details: chronic; duration: 1 years; oral; Dog Other; clinical signs
Bibionidae = details: chronic/long-term; duration: 28 days
Daphnia magna = details: chronic/long-term; duration: 21 days; reproduction
Apis mellifera = details: acute; duration: 48 hours; oral; unspecified; mortality
Tagia sp. = details: acute; duration: 14 days; mortality

## Cc1c(COC(=O)[C@@H]2[C@H](/C=C(\Cl)C(F)(F)F)C2(C)C)cccc1-c1ccccc1 [Bifenthrin]
Oncorhynchus mykiss; acute, duration: 96 hours, mortality
  LC50: 0.1 ng/mL (≈ 0.236 nM)
Oncorhynchus mykiss; chronic/long-term, duration: 30 days, other
  NOEC: 1.2e-05 mg/L
Aphidius rhopalosiphi
  LEL: 60 g/ha
Anas platyrhynchos
  LD50: > 2150 mg/kg
Mus musculus
  LD50: 42.5 mg/kg
Colinus virginianus; diet
  LD50: 569 mg/kg-day
Colinus virginianus
  LD50: 1800 mg/kg
Colinus virginianus; reproduction developmental
  NOEC: 75 mg/kg-day
Canidae
  NOAEL: 1.5 mg/kg-day
Bibionidae
  NOEC: 0.00032 mg/L
Daphnia magna
  NOEC: 9.5e-07 mg/L
Rattus norvegicus; developmental, development
  NOAEL: > 2 mg/kg-day
Rattus norvegicus; reproduction developmental, reproduction
  NOAEL: 3 mg/kg-day
Rattus norvegicus; subchronic, duration: 90 days, oral, neurology
  NOAEL: 2.9 mg/kg-day
Apis mellifera
  LD50: 0.1 µg/piece
Tagia sp.
  LC50: > 16 mg/kg

Source: EPA's ToxValDB 9.5 (doi:10.2903/j.efsa.2009.186r)
